In publication PMC10655324, “Combinative effects of akarkara root-derived metabolites on anti-inflammatory and anti-alzheimer key enzymes: integrating bioassay-guided fractionation, GC-MS analysis, and in silico studies” (BMC Complementary Medicine and Therapies, 2023):
Where two headings read alike, the source gives them in different places.

What was measured:
[1] = DPPH radical scavenging assay; settings: for IC50: isolated compounds and Trolox
Experimental: The extract and fractions were prepared in dimethyl sulfoxide (DMSO) at a concentration of 1mg/mL, while the isolated compounds were tested in 500 µM.
The 2,2-diphenyl-1-picrylhydrazyl (DPPH) assay was performed as described previously. One hundred μL of DPPH reagent (freshly prepared as 0.1% in methanol) was mixed with equal volume of each sample. Then, the solutions were left in the dark at room temperature for […]. Trolox (6-hydroxy-2,5,7,8-tetramethylchroman-2-carboxylic acid) was used as a positive control. The absorbances were measured at 517 nm. Data are represented as means ± SD according to the following equation:
Percentage inhibition = [(Average absorbance of blank - average absorbance of the test)/(Average absorbance of blank)] x 100
The IC50 of each tested sample was determined.

iNOS = iNOS inhibitory activity in LPS-induced RAW264.7 macrophages (nitrite, Griess reagent); type: cell-based; settings: Mus musculus
Experimental: The RAW264.7 macrophage cells were grown on DMEM media, supplemented with 10% FBS and 1% P/S (100 U/ml and […], respectively). The RAW264.7 macrophage cells were kept in DMEM at 37 °C and 5% CO2. For the anti-inflammatory assays, cells were used at 60% confluency after a 24-hour acclimatization period.
Stock solutions of the extract, fractions (1 mg/mL) and the isolated compounds (1000 μM) were made by dissolving in 0.1% DMSO in PBS (pH 7.2). For experiments, they were further diluted with DMEM to obtain the desired concentration. In a 96-well plate, the RAW264.7 macrophages were seeded (4 × 10^3 cells per well) overnight, then washed with DMEM. The macrophages were pre-treated with various concentrations of the extract, fractions (125- 0.98 µg/mL), isolated compounds, and standard drugs (125 - 0.06 µM) for 30 min, and further incubated with LPS (1 μg/mL) for 24 h. For the negative control, cells were treated with 0.1% DMSO (negative control LPS-). After incubation, the monolayer of […] cells were washed with ice-cold PBS (pH 7.2), trypsinized, and treated with lysis buffer (1% Triton X-100, 50 mMTris–HCl, pH 7.4, 0.2% sodium dodecyl sulfate, 0.2% sodium deoxycholate, 1 mM phenylmethylsulfonyl fluoride, 1 mM sodium ethylenediaminetetraacetate, 5 μg/mL of leupeptin, 5 μg/mL of aprotinin) then centrifuged (5000 rpm for 10 min) to collect the supernatant, The cell lysates were stored at − 80 °C utilized for anti-inflammatory assays.
The inhibitory activity of Inducible nitric oxide synthase (iNOS) was determined in terms of nitric oxide (NO) concentration by measuring the quantity of nitrite in the cell culture supernatant using Griess reagent. Equal volumes of each cell lysate (100 µL) and Griess reagent (1% sulfanilamide, 0.1% naphthylethylenediamine dihydrochloride, and 5% phosphoric acid) were mixed and incubated at room temperature for 10 min. Using a microplate reader, absorbances at 540 nm were measured. Parthenolide served as a positive control. The % inhibition was calculated using the following formula:
iNOS % Inhibition= [(OD control−OD sample)/ OD control x 100].

AChE = AChE (Homo sapiens, UniProt P22303); assay: biochemical
Experimental: (§1) The cholinesterase inhibitory activity was determined colorimetrically as previously published method with slight modifications. […] In a 96-well plate, 170 μl Tris-HCl buffer (200 mM, pH 7.5) was mixed with 20 μL of each tested sample solution and 20 μL of 0.1 U/ml enzyme solution (Ache or BChE) containing 0.1% bovine serum albumin in the same buffer. Dithio-bis-(2-nitrobenzoic acid) DTNB, an indicator, was added after 10 min of incubation at 25 °C (0.69 mM in tris buffer). […] In the control assays without the inhibitors, the tested samples were replaced by DMSO (20 μl) and their absorbance values were recorded (Reading B). Regarding the blank assays, the buffer (20 μL) was added instead of the enzyme.
(§2) The % inhibition was calculated using the following formula:
(§3) % of inhibition = [1− (corrected A/corrected B)] * 100

BChE = BChE (Homo sapiens, UniProt P06276); assay: biochemical
Experimental: as §1, §2, §3

[2] = LPS-induced RAW264.7 macrophages, isolated compounds and Parthenolide, read-out: iNOS IC50

Chain of AChE (P22303 32-614): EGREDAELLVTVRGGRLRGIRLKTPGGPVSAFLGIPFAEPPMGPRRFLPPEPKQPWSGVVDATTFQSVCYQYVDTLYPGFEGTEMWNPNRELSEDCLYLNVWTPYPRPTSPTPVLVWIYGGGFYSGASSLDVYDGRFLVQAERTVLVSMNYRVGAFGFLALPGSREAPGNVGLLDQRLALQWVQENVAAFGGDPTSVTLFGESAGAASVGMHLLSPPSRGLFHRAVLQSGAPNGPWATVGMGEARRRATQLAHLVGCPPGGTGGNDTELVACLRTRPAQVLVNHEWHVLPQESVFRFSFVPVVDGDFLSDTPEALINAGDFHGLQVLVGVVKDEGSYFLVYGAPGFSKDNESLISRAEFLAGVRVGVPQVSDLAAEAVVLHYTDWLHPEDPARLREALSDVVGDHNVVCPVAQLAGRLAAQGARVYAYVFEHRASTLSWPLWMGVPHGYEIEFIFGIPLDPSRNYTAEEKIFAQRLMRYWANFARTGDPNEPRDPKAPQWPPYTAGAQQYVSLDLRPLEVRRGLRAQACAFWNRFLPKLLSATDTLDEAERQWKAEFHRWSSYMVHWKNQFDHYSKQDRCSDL
Chain of BChE (P06276 29-602, species assumed): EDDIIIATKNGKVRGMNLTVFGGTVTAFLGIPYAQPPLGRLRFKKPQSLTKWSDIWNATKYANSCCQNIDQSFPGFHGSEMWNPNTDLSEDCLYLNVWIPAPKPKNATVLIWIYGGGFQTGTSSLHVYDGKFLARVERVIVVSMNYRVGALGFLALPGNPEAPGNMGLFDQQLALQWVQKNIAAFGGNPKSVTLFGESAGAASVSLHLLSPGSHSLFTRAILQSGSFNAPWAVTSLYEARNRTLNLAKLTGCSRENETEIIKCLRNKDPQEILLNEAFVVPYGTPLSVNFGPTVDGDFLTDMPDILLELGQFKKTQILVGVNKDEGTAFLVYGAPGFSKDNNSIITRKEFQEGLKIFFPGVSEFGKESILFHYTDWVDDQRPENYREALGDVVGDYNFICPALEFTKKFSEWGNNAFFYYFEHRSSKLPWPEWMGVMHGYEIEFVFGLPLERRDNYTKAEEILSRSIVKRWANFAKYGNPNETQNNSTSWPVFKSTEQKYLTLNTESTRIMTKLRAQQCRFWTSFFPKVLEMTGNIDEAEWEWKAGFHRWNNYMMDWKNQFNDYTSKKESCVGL

Row | Compound | IC50 [1] [µM] | IC50 (iNOS; RAW264.7, read-out: iNOS IC50) [µM] | IC50 (iNOS; [2]) [µM] | DPPH IC50 ([1]; extract, fractions and Trolox standard) [µg/mL] | IC50 (AChE) [µM] | IC50 (BChE) [µM]
1 | CCCCC/C=C/C=C/C(=O)NCC(C)C [A4, deca-2E,4E-dienoic acid isobutylamide] | 22.6 ± 0.41 | 11.4 ± 0.36 | – | – | – | –
2 | C=C1C(=O)O[C@H]2[C@H]1CC/C(C)=C/CC[C@@]1(C)O[C@@H]21 [Parthenolide, reference compound] | – | – | 4.1 ± 0.08 | – | – | –
3 | Cc1c(C)c2c(c(C)c1O)CCC(C)(C(=O)O)O2 (stereo not drawn) [Trolox, 6-hydroxy-2,5,7,8-tetramethylchroman-2-carboxylic acid, reference compound] | 5.63 | – | – | 1.41 ± 0.08 | – | –
4 | CCCCCCCC/C=C\CCCCCCCC(N)=O [A1, 9-cis-octadecenamide] | 21.67 ± 0.21 | 10.3 ± 0.12 | – | – | 8.37 ± 0.1 | 9.29 ± 0.29
5 | CC[C@H](/C=C/[C@@H](C)[C@H]1CC[C@H]2[C@@H]3CC=C4C[C@@H](O)CC[C@]4(C)[C@H]3CC[C@]12C)C(C)C [A2, stigmasterol] | 16.4 ± 0.23 | 6.72 ± 0.08 | – | – | – | –
6 | CCCCC/C=C/C=C/C(=O)NCCc1ccccc1 [A3, 2E, 4E-deca-2,4-dienoic acid 2-phenylethyl amide] | 17.73 ± 0.16 | – | 9.15 ± 0.12 | – | 7.7 ± 0.26 | 8.65 ± 0.25
